Read-outs that look alike come from different tables or passages of the source.
Columns and labels:
acetylcholine esterase = acetylcholine esterase (Homo sapiens, UniProt P06276); assay: Inhibition of acetylcholine esterase, modified method of Ellmann, human serum; type: biochemical; settings: ACHE inhibition
Experimental: The values were given as a percentage of the comparison sample and the inhibiting concentration (IC^50) was calculated from the course of the curve.

[1] = human serum from a pool of 10 test subjects, 37° C., pH 7.8, compounds of general formula (I)

Sequence of acetylcholine esterase (P06276 29-602): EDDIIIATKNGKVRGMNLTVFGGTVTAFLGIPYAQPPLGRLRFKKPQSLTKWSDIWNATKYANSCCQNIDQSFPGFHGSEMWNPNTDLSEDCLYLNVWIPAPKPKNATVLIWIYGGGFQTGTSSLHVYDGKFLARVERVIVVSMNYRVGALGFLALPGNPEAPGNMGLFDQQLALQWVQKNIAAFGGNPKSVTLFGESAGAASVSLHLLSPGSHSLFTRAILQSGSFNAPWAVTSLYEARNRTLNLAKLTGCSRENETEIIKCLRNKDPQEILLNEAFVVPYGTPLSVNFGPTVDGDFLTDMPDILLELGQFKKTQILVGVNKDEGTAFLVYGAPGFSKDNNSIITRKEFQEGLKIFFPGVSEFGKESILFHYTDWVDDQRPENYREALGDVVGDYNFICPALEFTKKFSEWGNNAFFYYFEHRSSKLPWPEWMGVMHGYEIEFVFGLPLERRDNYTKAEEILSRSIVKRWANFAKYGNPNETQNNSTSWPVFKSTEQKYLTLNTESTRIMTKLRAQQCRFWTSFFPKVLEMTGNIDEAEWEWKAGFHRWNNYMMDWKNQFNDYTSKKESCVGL

SMILES: Fc1ccc(N2CC3CC2CN3)cc1 (stereo not shown)
- melting point: 120 to 130 °C

SMILES: COc1ccc2c3c1OC1CC(O)C=CC31CC[N+](C)([O-])C2 (single isomer, unassigned; (-)) [Substance 98, (−)-Galanthamine-N-oxide]
- IC50 in μMol (acetylcholine esterase; [1]): insol.

SMILES: COC(=O)N1CCC23C=CC(O)CC2Oc2c(OC)cc(Br)c(c23)C1 (racemic) [Substance 62]
- IC50 in μMol (acetylcholine esterase; [1]): insol.

SMILES: COc1ccc2c3c1OC1CC(=NN(C)C)C=CC31CCN(C)C2 (racemic) [Substance 82]
- IC50 in μMol (acetylcholine esterase; [1]): insol.

SMILES: COc1ccc2c3c1O[C@H]1CC(=NO)C=C[C@@]31CCN(C)C2 [Substance 76, narwedine Oxime]
- IC50 in μMol (acetylcholine esterase; [1]): insol.

SMILES: C#CCN1CCC23C=CC(O)CC2Oc2c(OC)cc(Br)c(c23)C1 (racemic) [Substance 50]
- IC50 in μMol (acetylcholine esterase; [1]): insol.

SMILES: O=[N+]([O-])c1ccc(N2CC3CC2CN3Cc2ccccc2)cc1 (stereo not shown)
- melting point: 170 to 173 °C

SMILES: COC(=O)CCC(=O)N1CCC23C=CC(O)CC2Oc2c(OC)cc(Br)c(c23)C1 (racemic) [Substance 61]
- IC50 in μMol (acetylcholine esterase; [1]): insol.

SMILES: COc1ccc2c3c1OC1CC(=NO)C=CC31CCN(C)C2 (single isomer, unassigned) [Substance 77, narwedine Oxime]
- IC50 in μMol (acetylcholine esterase; [1]): insol.

SMILES: COc1cc(Br)c2c3c1OC1CC(O)C=CC31CCN(CC#N)C2 (racemic) [Substance 52]
- IC50 in μMol (acetylcholine esterase; [1]): insol.

SMILES: c1ccc(N2CC3CC2CN3)cc1 (stereo not shown)
- melting point: 120 to 130 °C

SMILES: COc1cc(Br)c2c3c1OC1C[C@@H](O)C=CC31CCN(C)C2=O (mixture of isomers)
- melting point: 188 to 189 °C

SMILES: COc1ccc2c3c1OC1CC(=NNC(N)=O)C=CC31CCN(C)C2 (racemic) [Substance 87]
- IC50 in μMol (acetylcholine esterase; [1]): insol.

SMILES: O=[N+]([O-])c1ccccc1N1CC2CC1CN2Cc1ccccc1 (stereo not shown)
- melting point: 107 to 108 °C

SMILES: CCCCCCN1CCC23C=CC(O)CC2Oc2c(OC)cc(Br)c(c23)C1 (racemic) [Substance 49]
- IC50 in μMol (acetylcholine esterase; [1]): insol.

SMILES: Cc1ccc(N2CC3CC2CN3)cc1 (stereo not shown)
- melting point: 130 to 140 °C

SMILES: Clc1ccc(N2CC3CC2CN3)cc1 (stereo not shown)
- melting point: 120 to 130 °C

SMILES: CCCCNC(=S)OC1C=CC23CCN(C)Cc4ccc(OC)c(c42)OC3C1 (single isomer, unassigned; (+)) [Substance 24, (+)-Galanthamin-n-butylthiocarbamate]
- IC50 (acetylcholine esterase; human serum from a pool of 10 test subjects, 37° C., pH 7.8, compounds of general formula (I), read-out: IC50 in μMol): 85 µM

SMILES: COc1ccc2c(c1O)C13C=C[C@@H](O)CC1N(CC3)C2 (stereo partly shown) [Substance 115, 35-4,4a-dihydro-9-methoxy-10-hydroxy (3H,6H) (5,10b) ethanophenanthridine-3-ol]
- IC50 (acetylcholine esterase; human serum pool, compounds of formula (II), read-out: IC50): > 150 µM

From patent US7101890B2, “Benzazepine derivatives, drugs containing these and use of the same for producing drugs” (priority 1996, dated 2006)
